Results from patent publication US5710160A, “Diphenyl pyridyl ethane derivatives as PDE IV inhibitors” (Merck Frosst Canada, Inc., priority 1996, dated 1998).

Tested on: right atrial and papillary muscles
Assay: not given
Details: non-specific PDE inhibitor; general statement; cited from earlier work

Compound	cardiovascular changes
Cn1c(=O)c2[nH]cnc2n(C)c1=O [theophylline]	significant cardiovascular changes such as tachycardia

Tested on: right atrial and papillary muscles
Assay: Effects on cardiac muscle in vitro
Set-up: species or system guinea pigs
Details: reference PDE inhibitors; no concentration given
Text: Right atrial and papillary muscles were dissected out from the hearts of guinea pigs and suspended in organ baths for measuring the rate (chronotropic) of spontaneously beating atria and force (inotropic) of the electrically stimulated papillary muscle.

Compound	direct (chronotropic and inotropic) effects in these preparations
COc1ccc(C2CNC(=O)C2)cc1OC1CCCC1 (stereo not drawn) [rolipram]	do not have any direct effects
Cc1[nH]c(=O)c(C#N)cc1-c1ccncc1 [milrinone]	positive chronotropic and inotropic effects

Biological target: T1, GST fusion protein of the human recombinant phosphodiesterase IVa (met-248) (Homo sapiens, UniProt P27815)
T1 construct: GST-Met 248 PDE IVa; made in house; host or cells: Sf-9 insect cells (baculovirus expression system)
T1 sequence (P27815 248-886 limits assumed): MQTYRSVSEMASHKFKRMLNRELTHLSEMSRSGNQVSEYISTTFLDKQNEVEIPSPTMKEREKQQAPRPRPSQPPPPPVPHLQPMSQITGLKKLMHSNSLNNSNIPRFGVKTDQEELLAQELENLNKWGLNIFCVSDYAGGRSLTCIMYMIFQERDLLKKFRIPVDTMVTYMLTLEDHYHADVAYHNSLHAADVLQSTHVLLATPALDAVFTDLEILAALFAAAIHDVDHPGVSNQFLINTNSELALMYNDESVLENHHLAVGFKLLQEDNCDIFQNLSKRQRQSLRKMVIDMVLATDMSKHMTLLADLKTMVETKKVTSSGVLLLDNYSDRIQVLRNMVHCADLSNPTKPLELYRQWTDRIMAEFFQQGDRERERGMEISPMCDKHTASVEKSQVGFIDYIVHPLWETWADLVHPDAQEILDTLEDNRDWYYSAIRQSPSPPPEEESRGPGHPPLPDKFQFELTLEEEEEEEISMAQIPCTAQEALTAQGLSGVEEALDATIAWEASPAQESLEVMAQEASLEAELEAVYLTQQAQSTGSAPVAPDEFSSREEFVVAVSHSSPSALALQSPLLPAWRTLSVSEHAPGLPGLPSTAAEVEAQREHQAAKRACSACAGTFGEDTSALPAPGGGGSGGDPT
Assay: SPA based PDE activity assay (hydrolysis of cAMP to AMP)
Format: biochemical
Details: 100 nM cAMP; purified GST fusion protein, baculovirus/Sf-9; 10 min at 30° C
Protocol: Phosphodiesterase Scintillation Proximity Assay
CHO-K1 cells were lysed by sonication for 10 secs at a power setting of 50% (Braunsonic Model 2000) in an ice cold solution containing 50 mM Tris, pH 7.5; 1 mM EDTA; and 200 mM b-mercaptoethanol.
The soluble and particulate fractions of the cell were obtained by centrifuging the sonicate for 90 min. at 100,000 x g at 4° C. PDE activity was measured in a solution containing 50 mM Tris, pH 7.5; 10 mM MgCl2; 1 mM EDTA; and 100 nM (or indicated) ^3 H-cAMP (100 ml final volume) in the presence of varying concentrations of inhibitor. The reaction mixture containing enzyme was incubated for 10 min. at 30° C. in 96-well View Plates (Packard), and terminated by the addition of 50 ml Phosphodiesterase Scintillation Proximity Assay (SPA) Beads (Amersham) containing 18 mM ZnSO4. The amount of ^3 H-cAMP hydrolysis was determined by counting the plates in a Wallac 1450 mBeta LSC counter.
SPA based PDE activity assay protocol
Compounds which inhibit the hydrolysis of cAMP to AMP by the type-IV cAMP-specific phosphodiesterases were screened in 96-well plate format as follows:
In a 96 well-plate at 30° C. was added the test compound (dissolved in 2 ul DMSO), 188 ml of substrate buffer containing [2,8-^3 H] adenosine 3',5'-cyclic phosphate (cAMP, 100 nM to 50 μM), 10 mM MgCl2, 1 mM EDTA, 50 mM Tris, pH 7.5. The reaction was initiated by the addition of […] of human recombinant PDE-IV (the amount was controlled so that~10% product was formed in 10 min. at 30° C). The reaction was stopped after 10 min. by the addition of 1 mg of PDE-SPA beads (Amersham). The product AMP generated was quantified on a Microbeta 96-well plate counter. The signal in the absence of enzyme was defined as the background. 100% activity was defined as the signal detected in the presence of enzyme and DMSO with the background subtracted. Percentage of inhibition was calculated accordingly. IC50 value was approximated with a non-linear regression fit of the standard 4-parameter/multiple binding sites equation from a ten point titration.
IC50 values shown in Table 2 were determined with 100 nM cAMP using the purified GST fusion protein of the human recombinant phosphodiesterase IVa (met-248) produced from a baculovirus/Sf-9 expression system.

IC50 [nM]	Compound
3	COc1ccc([C@H](Cc2ccncc2)c2ccc(C=NO)cc2)cc1OC1CCCC1 [Example 3, (R)-4-[1-(3-Cyclopentyloxy-4-methoxyphenyl)-2-(4-pyridyl)ethyl]benzaldehyde oxime]
2	COc1ccc([C@H](Cc2ccncc2)c2ccc(C(C)O)cc2)cc1OC1CCCC1 (stereo partly drawn) [Example 5, (R)-4-{2-(3-Cyclopentyloxy-4-methoxyphenyl)-2-[4-(1-hydroxyethyl)phenyl]ethyl}pyridine]
2	COc1ccc([C@H](Cc2ccncc2)c2ccc(-c3nnn[nH]3)cc2)cc1OC1CCCC1 [Example 4, (R)-4-{2-(3-Cyclopentyloxy-4-methoxyphenyl)-2-[4-(tetrazol-5-yl)phenyl]ethyl}pyridine]

More lines, now with the values behind:

Compound	IC50 [nM]
COc1ccc([C@H](Cc2ccncc2)c2ccc(C(=O)N3CCN(C)CC3)cc2)cc1OC1CCCC1 [Example 1, (R)-4-{2-(3-Cyclopentyloxy-4-methoxyphenyl)-2-[4-(4-methylpiperazinocarbonyl)pheny]lethyl}pyridine]	0.8
COc1ccc([C@H](Cc2ccncc2)c2ccc(C(C)=O)cc2)cc1OC1CCCC1 [Example 6, (R)-4-[2-(3-Cyclopentyloxy-4-methoxyphenyl)-2-(4-acetylphenyl)ethyl]pyridine]	3
COc1ccc([C@H](Cc2ccncc2)c2ccc(C(=O)N3CCCC3)cc2)cc1OC1CCCC1 [Example 2, (R)-4-[2-(3-Cyclopentyloxy-4-methoxyphenyl)-2-(4-pyrrolidinocarbonylphenyl)ethyl]pyridine]	1
